Results as given in US12226501B2, “Composition with stabilized taste and odor” (Symrise AG, priority 2015, dated 2025).

What was measured:
[1] = Stabilization of argan oil, absorbance at 232 nm (conjugated dienes); assay type: physicochemical; details: compared to argan oil without additive or to alpha-tocopherol 0.5%
Description: To evaluate the protecting effect of oils from oxidation, oil samples comprising argan oil without (A) and with different additives (B to D) were prepared as given in Table 8.
(§1) The oils were divided into 3 portions each. One portion was exposed to artificial UV light in a suntest device (Original Hanau-Xenon lamp) for 8 hours 550-600 W/m^2 (300 to 800 nm). The other two portions were stored for 1 month either at room temperature exposed to normal daylight (RTL) or at 50° C. in a heating cabinet (50° C.), respectively. After the treatments, the absorbance at 232 nm was determined as this correlates with the state of oxidation by detecting conjugated dienes as specific oxidized compounds.

[2] = ABTS-assay, anti-oxidative capacity (inhibition of radical formation); assay type: biochemical; details: for IC50: ABTS radical cation, absorption at 734 nm, mean value from at least 2 independent tests
Description: 6-Paradol is a known antioxidant. With the help of the ABTS-assay the anti-oxidative capacity of [6]-paradol and alpha-tocopherol was compared.
2,2′-azino bis-(3-ethylbenzothiazoline 6-sulfonic acid) (ABTS) was transformed by potassium persulfate into the blue-green radical cation ABTS•^+. Through the addition of [6]-paradol and alpha-tocopherol the radical cations were reduced and discoloration was observed, which was determined photometrically by Absorption at 734 nm. The inhibition of the radical formation of the test substance is calculated by the following formula:
[formula] Wherein the abbreviations have the following meanings: • Atest substance: Absorption of the wells with test substance including [6]-paradol and alpha-tocopherol • Acontrol: Absorption of the wells without test substance
From the inhibition of the radical formation [%] in a series of dilutions of tested samples the IC50 was calculated. This is the concentration at which the radical formation is inhibited by 50%.

[3] = Stabilization of avocado oil, absorbance at 232 nm (conjugated dienes); assay type: physicochemical; details: compared to avocado oil without additive or to alpha-tocopherol 0.5%
Description: To evaluate the odor protecting effect of [6]-paradol on oils, oil samples comprising avocado oil without (A) and with different additives (B to D) were prepared as given in Table 5.
as §1, with “oil samples” for “oils”, “divided respectively” for “divided”, “portions, wherein one part” for “portions each. One portion”, “this positive” for “this”

oxidized DNA bases = details: in vitro; cited from earlier work
DMBA-treated hamsters = details: oral 30 mg/kg b.w. on alternate days for 14 weeks; cited from earlier work
[4] = Color measurement (CIELAB L*a*b*, ΔE) of anti-aging cream containing a retinoid after suntest; assay type: physicochemical
Description: Retinoids such as e.g. retinol are potent anti-aging cosmetic agents known to be unstable and prone to discoloration upon light exposure and longer storage at higher temperatures (e.g. >30° C.).
The phase A was heated to 80° C. For phase B, Carbopol Ultrez 21 was sprinkled at the surface of the water for swelling. Afterwards, glycerin was added and phase B was heated up to 80°. Then phase B was added to phase A under strong agitation with an Ultra Turrax. The formula was cooled down and phase C was added at around 40° C. Afterwards, the formula was neutralized with sodium hydroxide to get pH 5-5.5. When the formula was at room temperature, phase E was added under agitation. Final pH was checked to be 5-5.5.
The cream samples were exposed to artificial UV light in a suntest device (Original Hanau-Xenon lamp) for 8 hours 550-600 W/m^2 (300 to 800 nm). Afterwards, they were evaluated for discoloration by measurement of L*a*b* values and calculation of the color difference ΔE as described in example 8.

Row | Compound | protective effect on argan oil (in words) [1] | IC50 [2] [µM] | radical scavenging activity better than alpha-tocopherol ([2]; comparison of IC50 values) [fold] | protective effect on avocado oil (in words) [3] | H2O2- and UV-induced formation of oxidized DNA bases (oxidized DNA bases) | status of antioxidants (DMBA-treated hamsters) | color protection of retinol (in words) [4]
1 | CCCCCCCC(=O)CCc1ccc(O)c(OC)c1 [[6]-paradol, 1-(4-hydroxy-3-methoxyphenyl)-decan-3-one] | lower increase of absorbance at 232 nm | 17.4 | 1.5 | lower increase of absorbance at 232 nm | attenuated | significantly improved the status of antioxidants | 
2 | Cc1c(C)c2c(c(C)c1O)CC[C@@](C)(CCC[C@H](C)CCC[C@H](C)CCCC(C)C)O2 [alpha-tocopherol, reference compound] |  | 26.8 |  |  |  |  | unsuitable for protecting retinol from discoloration
